The molecules below were run against JAK1 (Homo sapiens, UniProt P23458) (assay: Biochemical Kinase Assay (JAK), 33P-ATP filter-binding). Conditions: Biochemical Kinase Inhibition Assay; potency level of IC50; read-out: JAK1 (range).
Summary of the method: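 Radiometric filter-binding with 33P-ATP in pH 7.5 Hepes buffer with 10 mM MgCl2 and 1% DMSO. Compound preincubated with kinase and substrate 20 min at room temperature, reaction run 2 h at room temperature, spotted on P81 paper to give IC50.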

Chain of JAK1 (P23458 whole entry, species assumed): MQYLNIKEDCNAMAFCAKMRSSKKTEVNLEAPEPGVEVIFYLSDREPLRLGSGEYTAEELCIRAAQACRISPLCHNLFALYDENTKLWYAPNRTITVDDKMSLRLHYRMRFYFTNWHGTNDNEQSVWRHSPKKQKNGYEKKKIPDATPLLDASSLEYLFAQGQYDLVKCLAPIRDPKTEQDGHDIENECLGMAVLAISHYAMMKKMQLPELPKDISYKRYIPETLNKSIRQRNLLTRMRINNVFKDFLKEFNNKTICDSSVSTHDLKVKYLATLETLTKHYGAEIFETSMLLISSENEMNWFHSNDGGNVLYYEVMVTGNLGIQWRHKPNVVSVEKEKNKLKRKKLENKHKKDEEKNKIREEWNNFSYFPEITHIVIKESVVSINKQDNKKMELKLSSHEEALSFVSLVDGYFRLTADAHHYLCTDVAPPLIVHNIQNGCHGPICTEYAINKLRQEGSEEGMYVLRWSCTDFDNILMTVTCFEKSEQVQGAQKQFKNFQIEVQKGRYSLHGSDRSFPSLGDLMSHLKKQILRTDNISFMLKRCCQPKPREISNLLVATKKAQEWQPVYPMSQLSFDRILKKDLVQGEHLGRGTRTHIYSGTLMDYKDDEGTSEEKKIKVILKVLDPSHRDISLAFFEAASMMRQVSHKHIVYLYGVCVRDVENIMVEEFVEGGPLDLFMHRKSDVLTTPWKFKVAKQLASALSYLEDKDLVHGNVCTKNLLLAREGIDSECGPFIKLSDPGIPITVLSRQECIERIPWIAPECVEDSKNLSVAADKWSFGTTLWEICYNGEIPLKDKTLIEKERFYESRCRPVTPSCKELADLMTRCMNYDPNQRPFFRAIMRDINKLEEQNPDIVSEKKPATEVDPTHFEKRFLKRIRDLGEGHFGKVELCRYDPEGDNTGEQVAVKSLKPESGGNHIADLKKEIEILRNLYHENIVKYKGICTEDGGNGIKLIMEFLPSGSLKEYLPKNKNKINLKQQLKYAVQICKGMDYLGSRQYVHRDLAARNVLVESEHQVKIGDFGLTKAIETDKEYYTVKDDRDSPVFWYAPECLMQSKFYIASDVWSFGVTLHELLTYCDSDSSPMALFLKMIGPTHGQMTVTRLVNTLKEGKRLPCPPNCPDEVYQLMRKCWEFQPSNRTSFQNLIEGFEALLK

Compound	IC50 [nM]
Cc1cc(Nc2nn(C3COCCC3C#N)cc2C(N)=O)cc2c1B(O)OC2 (stereo not drawn) [Example 6, 1-(trans-4-cyanotetrahydro-2H-pyran-3-yl)-3-[(1-hydroxy-7-methyl-3H-2,1-benzoxaborol-5-yl)amino]pyrazole-4-carboxamide]	< 10
N#CC1CCOCC1n1cc(C(N)=O)c(Nc2cc(Cl)c3c(c2)C=CB(O)O3)n1 (stereo not drawn) [Example 13, 3-((8-chloro-2-hydroxy-2H-benzo[e][1,2]oxaborinin-6-yl)amino)-1-(trans-4-cyanotetrahydro-2H-pyran-3-yl)-1H-pyrazole-4-carboxamide]	< 10
CC1=Cc2cc(Nc3nn(C4COCCC4C#N)cc3C(N)=O)cc(F)c2OB1O (stereo not drawn) [Example 14, 1-(trans-4-cyanotetrahydro-2H-pyran-3-yl)-3-[(8-fluoro-2-hydroxy-3-methyl-1,2-benzoxaborinin-6-yl)amino]pyrazole-4-carboxamide]	< 10
N#CC1CCOCC1n1cc(C(N)=O)c(Nc2ccc3c(c2)B(O)OC3)n1 (stereo not drawn) [Example 16, 1-(trans-4-cyanotetrahydro-2H-pyran-3-yl)-3-((1-hydroxy-1,3-dihydrobenzo[c][1,2]oxaborol-6-yl)amino)-1H-pyrazole-4-carboxamide]	< 10
CC1=C(C)c2cc(Nc3nn(C4COCCC4C#N)cc3C(N)=O)cc(C)c2OB1O (stereo not drawn) [Example 23, 1-(trans-4-cyanotetrahydropyran-3-yl)-3-[(2-hydroxy-3,4,8-trimethyl-1,2-benzoxaborinin-6-yl)amino]pyrazole-4-carboxamide]	< 10
Cc1cc(Nc2nn(C3COCCC3C#N)cc2C(N)=O)cc2c1OB(O)C=C2 (stereo not drawn) [Example 27, 1-[trans-4-cyanotetrahydro-2H-pyran-3-yl]-3-[(2-hydroxy-8-methyl-1,2-benzoxaborinin-6-yl)amino]pyrazole-4-carboxamide]	< 10
CC(C)C1=CB(O)Oc2ccc(Nc3nn(C4COCCC4C#N)cc3C(N)=O)cc21 (stereo not drawn) [Example 30, 1-[trans-4-cyanotetrahydro-2H-pyran-3-yl]-3-[(2-hydroxy-4-isopropyl-1,2-benzoxaborinin-6-yl)amino]pyrazole-4-carboxamide]	< 10
CC1(C)OB(O)c2cc(Nc3nn(C4COCCC4C#N)cc3C(N)=O)ccc21 (stereo not drawn) [Example 36, 1-[trans-4-cyanotetrahydro-2H-pyran-3-yl]-3-[(1-hydroxy-3,3-dimethyl-2,1-benzoxaborol-6-yl)amino]pyrazole-4-carboxamide]	< 10
N#CC1CCOCC1n1cc(C(N)=O)c(Nc2cc(F)c3c(c2)COB3O)n1 (stereo not drawn) [Example 38, 1-[trans-4-cyanotetrahydro-2H-pyran-3-yl]-3-[(7-fluoro-1-hydroxy-3H-2,1-benzoxaborol-5-yl)amino]pyrazole-4-carboxamide]	< 10
N#CC1CCOCC1n1cc(C(N)=O)c(Nc2ccc3c(c2)COB3O)n1 (stereo not drawn) [Example 41, 1-(trans-4-cyanotetrahydro-2H-pyran-3-yl)-3-((1-hydroxy-1,3-dihydrobenzo[c][1,2]oxaborol-5-yl)amino)-1H-pyrazole-4-carboxamide]	< 10
N#CC1CCOCC1n1cc(C(N)=O)c(Nc2ccc3c(c2)B(O)OCC3)n1 (stereo not drawn) [Example 42, 1-[trans-4-cyanotetrahydro-2H-pyran-3-yl]-3-[(1-hydroxy-3,4-dihydro-2,1-benzoxaborinin-7-yl)amino]pyrazole-4-carboxamide]	< 10
N#CC1CCOCC1n1cc(C(N)=O)c(Nc2ccc3c(c2)C(Cl)=CB(O)O3)n1 (stereo not drawn) [Example 43, 3-[(4-chloro-2-hydroxy-1,2-benzoxaborinin-6-yl)amino]-1-[trans-4-cyanotetrahydro-2H-pyran-3-yl]pyrazole-4-carboxamide]	< 10
N#CC1CCOCC1n1cc(C(N)=O)c(Nc2cc(F)c3c(c2)C=CB(O)O3)n1 (stereo not drawn) [Example 44, 1-[trans-4-cyanotetrahydro-2H-pyran-3-yl]-3-[(8-fluoro-2-hydroxy-1,2-benzoxaborinin-6-yl)amino]pyrazole-4-carboxamide]	< 10

From patent publication US11827657B2, “Boron containing pyrazole compounds, compositions comprising them, methods and uses thereof” (BOEHRINGER INGELHEIM ANIMAL HEALTH USA INC., priority 2020, dated 2023)
